Peptide text beside a SMILES is read from it. * marks the point of attachment. Cbz = O=C(OCc1ccccc1)*; CH2F = FC*
Experiments:
MCA205 cells [1] = assay: Cell death monitoring by DiOC6(3)/PI staining; assay type: cell-based, mouse
Description: (§1) FIG. 5. Identification of cannibalism modulators as immunogenic cell death inducers. MCA205 (A) or CT26 (E, I, M, Q) cells were treated with the indicated drugs. After 24 h of coculture with the indicated treatment, cell death was monitored by staining DiOC6(3) and PI, and the percentage of dying (DiOC6(3)^low PI^−, open bars) and dead (DiOC6(3)^low PI^+, closed bars) cells was determined by cytofluorometry. (B-D) MCA205 cells or (F-H, J-L, N-P, R-T) CT26 cells cocultured after x irradiation with the indicated compounds were inoculated subcutaneously into the right flank of […] or BALB/c mice, respectively. Seven days later, the mice were rechallenged with live cells injected into the opposite flank, and tumor growth was monitored (five mice per group).
(§2) Considering that immunogenic cell death (ICD) inducers were identified (such as Digoxin, Digitoxin, Lanatoside C or Doxorubicin hydrochloride)^3, 4, 48-51) as IRCCE, the ability of these compounds to induce an antitumor immunity after radiotherapy was evaluated. […] Tumors were evaluated weekly using a common caliper. […] One week later, 5×10^5 untreated control cells were inoculated into the contralateral flank of mice and tumors were evaluated weekly using a common caliper. […] The percentage of dying cells in each condition was evaluated by determining with DiOC(6)3/IP staining (FIGS. 5E, 5I, 5M and 5Q). […]

MCA205 cells [2] = assay: Anti-tumor vaccination assay, treated MCA205 cells inoculated into C57BL/6 mice and rechallenge; assay type: in vivo, mouse
Description: as §1, §2

HCT116 cells [3] = assay: Screening for enhancers of IR-mediated cellular cannibalism (imaging flow cytometry, confocal microscopy validation); assay type: cell-based, human; settings: 8 Gray, 10 μM compound, 24 hours of culture
Description: FIG. 4 Identification of cannibalism modulators triggered by ionizing radiation. Compounds from the Prestwick (A) and CEA (F) libraries were tested for their capacities to induce cellular cannibalism after ionizing radiation. Cannibal cells were detected after homotypic cultures of 8 gray γ-irradiation HCT116 cells in the presence or absence of […] of the Prestwick (A) and CEA […] library compounds. Each dot represents one compound. Representative images are shown in (B, G). (C, H) HCT116 cells were treated with the indicated drugs. After 24 h of treatment, cell death was monitored by staining with 3,3 dihexyloxacarbocyanine iodide (DiOC6(3)) and PI, and the percentage of dying (DiOC6(3)^low PI^−, open bars) and dead (DiOC6(3)^low PI^+, closed bars) cells was determined by cytofluorometry. Validation of the cannibalism inducers by fluorescent microscopy. Representative images (D, I) and quantification (E, J) are shown. Results are means±s.e.m. of triplicate determinations.
Then, the screening of a library of chemical compounds was developed in order to identify compounds able to induce IR-mediated cellular cannibalism. Thus, HCT116 cells that have been treated with a radiation dose of 8 Gray were stained either with orange CMTMR cell tracker or green CMFDA cell tracker and cultivated in presence of 10 μM of chemical compounds. After 24 hours of culture, cells have been stained with nuclear dye (5 μg/ml of Hoechst 33342 during 1 h at 37° C.) and analyzed using the FlowSight® Imaging Flow Cytometer for cellular cannibalism. Each of these compounds were classified according to their Z-score^47 and identified respectively 13 and 11 candidate compounds (FIGS. 4A, 4B, 4F and 4G). Then, the identified compounds were validated by combining flow cytometry approaches (in order to eliminate cytotoxic compounds by simultaneously monitoring the depolarization of the internal mitochondrial membrane and the plasma membrane permeability of the treated cells) with confocal microscopy approaches (to confirm the modulation of IR-induced cellular cannibalism by candidate compounds) (FIGS. 4C-E and 4H-J). […] Finally, 16 chemical compounds that are able to enhance the capacity of IR to trigger cellular cannibalism were identified (FIGS. 4E and 4J, Tables 1&2).

CT26 cells = assay: Anti-tumor vaccination assay, treated CT26 cells inoculated into BALB/c mice and rechallenge; assay type: in vivo, mouse; settings: 8 Gy in presence of 10 μM compound for 24 hours
Description: as §1
FIG. 6. Tumor vaccination experiments. CT26 cells were treated for 24 hours with 10 μM VP331 (A, F, K), 10 μM Minaprine (B, G, L), 10 μM Lopa87 (C, H, M), 10 μM SG6163F (D, I, N), 10 μM Azaguanine-8 (8-aza) (E, J, O) alone or combined with 8 Gy ionizing radiation and inoculated (s.c.) into immunocompetent BALB/c mice, which were rechallenged at the opposite flank 7 days later with the same cancer cells. The percentage of tumor-free mice was evaluated three times a week for the following 38 days. Percentage of total tumor free mice (A-E), tumor free-mice at the first injection site (F to J, P) or at the second injection site (K to O, Q) are shown. (*P<0.05, **P<0.01, ***P<0.001, two-way ANOVA).
Considering that immunogenic cell death (ICD) inducers were identified (such as Digoxin, Digitoxin, Lanatoside C or Doxorubicin hydrochloride)^3, 4, 48-51) as IRCCE, the ability of these compounds to induce an antitumor immunity after radiotherapy was evaluated. First, a preclinical approaches was developed to study the immunological effects of IRCCE on two mouse models of carcinoma (colon CT26 carcinoma and fibrosarcoma MCA205). Initially, the ability of the combination of IRCCE+IR to trigger a specific anti-tumor immune response was appreciated using immunocompetent mice through anti-tumor vaccination assays. According to previously published studies^52, the injection of cancer cells succumbing to an immunogenic cell death (ICD) into immunocompetent mice must elicit a protective immune response that is specific for tumor antigens. Thus, 3×10^5 MCA205 cells were first treated with 10 μM of SG6163F for 24 hours. Then, treated cells were inoculated subcutaneously in 200 μl PBS into the lower flank of 8-week-old female C57BL/6 mice. One week later, 3×10^4 untreated control cells were inoculated into the contralateral flank of mice. Tumors were evaluated weekly using a common caliper. Animals bearing tumors that exceeded 20-25% body mass were euthanatized. […] Then, 3×10^6 CT26 cells were irradiated with 8 Gy in presence of 10 μM of SG6163F (FIGS. 5E and 5F), VP331 (FIGS. 5I and 5J), Minaprine dihydrochloride (FIGS. 5M and 5N) or LOPA87 (FIGS. 5Q and 5R) for 24 hours. Then, cells were inoculated as previously described subcutaneously in 200 μl PBS into the lower flank of 8-week-old female BALB/c mice. One week later, 5×10^5 untreated control cells were inoculated into the contralateral flank of mice and tumors were evaluated weekly using a common caliper. As previously mentioned, animals bearing tumors that exceeded 20-25% body mass were euthanatized. The percentage of dying cells in each condition was evaluated by determining with DiOC(6)3/IP staining (FIGS. 5E, 5I, 5M and 5Q). Finally, the ability of these compounds to repress the growth of cancer cells that have been injected 7 days after injection of irradiated and treated cancer cells was appreciated.
A second anti-tumor vaccination assay was done on CT26 mouse models of carcinoma as previously described. […]

HCT116 cells [4] = assay: Cell death profiling by quantitative flow imaging of co-cultured irradiated and non-irradiated cells; assay type: cell-based, human; settings: 4 grays, 24 hour co-culture; for Engulfment of neighboring cells by gamma-irradiated CMFDA+ cells (cell-in-cell internalization): Y27632 30 μM; for Engulfment of neighboring cells by gamma-irradiated CMFDA+ cells (cell-in-cell internalization) / Exposure of PS on the outer plasma membrane of irradiated CMFDA+ cells: Z-VAD-fmk 100 μM; for Exposure of PS on the outer plasma membrane of irradiated CMFDA+ cells: Roscovitine 10 μM
Description: Untreated HCT116 cells were labeled with CMFDA (green fluorescence, CMFDA^+) or CMTMR, (red fluorescence, CMTMR^+) and treated HCT116 cells with CMFDA (green fluorescence, CMFDA^+). The following cell mixtures were performed: untreated CMTMR^+ HCT116 cells were mixed with untreated CMFDA^+ HCT116 cells, or untreated CMTMR^+ HCT116 cells were mixed with treated CMFDA^+ HCT116 cells. Then, cells were co-cultured during 24 hours in the presence or absence of the pharmacological inhibitor of ROCK, Y27632 (30 μM), the pan-caspase inhibitor, Z-VAD-fmk (ZVAD, 100 μM), the inhibitor of caspase-1, Ac-YVAD-cmk (YVAD, 100 μM), the necroptosis inhibitor, Necrostatin-1 (NEC 1, 30 μM), the inhibitor of the vacuolar type H(+)-ATPase (V-ATPase) inhibiting autophagy, Bafilomycin A1 (BafA1, 50 nM), the inhibitor of Cdks with an anti-mitotic activity, Roscovitine (Rosco, 10 μM). After 24 hours of co-culture, both detached and adherent cells were collected and stained with Hoechst 33345 ([…]) during 1 hour at 37° C. in warmed complete medium. To detect phosphatidylserine (PS) exposure and plasma membrane permeability, labeled HCT116 cells were successively incubated with Biotin-AnnexinV (BD Pharmingen) as recommended by manufacturer, […] BV786-Streptavidin (BD Biosciences) and […] DRAQ7 (BioStatus) during 15 minutes at 25° C. After washing with PBS solution, samples were immediately analyzed using an imaging flow cytometer FlowSight® (Amnis®, part of EMD Millipore). Data were acquired at a 20× magnification, using INSPIRE software. The 405 nm, 488 nm, and 561 nm lasers were used for excitation. Brightfield, Annexin V-BV786, DRAQ7, CMFDA, CMTMR and Hoechst 33345 stainings were detected using respectively channels for 420-480 nm, 745-800 nm, 642-745 nm, 480-560 nm, 595-642 nm and 430-505 nm. At least 1000 events of cells per sample were analyzed. Additional single-labeled controls were prepared to normalize fluorescent signal across different channels. Acquired data were analyzed using the IDEAS analysis software (v6.1; Merck-Millipore). Gating strategy was the following. Cells were gated for focused cells using the Gradient RMS feature. Cells were gated for single cells using the aspect ratio and area features. For the cannibalism detection, cells were gated in the double positive CMFDA^+ and CMTMR^+ staining.
To detect PS exposure, plasma membrane permeability and cell cycle progression, cells were after co-culture sequentially labeled with specific fluorescent probes (such as FITC-conjugated AnnexinV, propidium iodide, and Hoechst 33342) and analyzed by flow cytometry. Both detached and adherent cells were collected and stained with Hoechst 33345 (10 ug/ml) during 1 hour at 37° C. in warmed complete medium. After washing with PBS, HCT116 cells were suspended in 1X binding buffer supplemented with fluorescein isothiocyanate (FITC)-conjugated Annexin V (BD Biosciences) and propidium iodide (PI, 1 μg/mL) (Sigma), as per manufacturer's instructions. Samples were then analyzed using LSRII flow cytometer (Becton Dickinson) and the FlowJo software v10. For confocal fluorescence microscopy, HCT116 cells were fixed after co-culture in 3,7% paraformaldehyde-PBS for 15 minutes and counterstained with 1 μg/mL Hoechst 33342 (Invitrogen) for 15 minutes. Then, cells were analyzed by confocal SPE microscope equipped with Apochromat 63×1.3 NA and 63×1.15 NA oil immersion objectives. The Leica Application Suite (LAS) software was used (Leica Microsystems).
Considering the diversity of lethal stimuli that can potentially initiate both non-cell autonomous and cell autonomous cell death modalities and the complexity of signaling pathways (involving (or not) caspases, cathepsins or granzymes) that control both processes, it was decided to simultaneously detect non-cell autonomous and cell autonomous death modalities elicited by IR. […]

SMILES: O=C1NC(c2ccccc2)=N/C1=C\c1cc2ccccc2c2ccccc12 [SG6163F]
- Increase of cell death in vitro (MCA205 cells [1]; 10 μM compound alone, 24 hours): not able to induce a significant increase of cell death
- Increase of death of treated and irradiated cells (MCA205 cells [1]; 8 Gy of IR and 10 μM compound): absence of a significant increase of death
- Protective response after inoculation of untreated cells (MCA205 cells [2]; MCA205 cells treated with 10 μM compound alone, rechallenge one week later): did not exhibit a protective response
- Mice with protective response (MCA205 cells [2]; MCA205 cells treated with 8 Gy of IR and 10 μM compound): 3 of 5
- Enhancement of IR-mediated cellular cannibalism (IRCCE) (HCT116 cells [3]): efficient cellular cannibalism enhancer
- Frequency of mice showing a protective response (CT26 cells; first assay: CT26 cells, rechallenge one week later): significant increase in the frequency of mice showing a protective response
- Frequency of mice showing a protective response (CT26 cells; second assay: CT26 cells, rechallenge 7 days later): Significant increases in the frequency of mice showing a protective response

SMILES: C[C@@H](N)[C@H]1CC[C@H](C(=O)Nc2ccncc2)CC1 [Y27632]
- Engulfment of neighboring cells by gamma-irradiated CMFDA+ cells (cell-in-cell internalization) (HCT116 cells [4]): repressed

SMILES: COC(=O)CC(NC(=O)C(C)NC(=O)C(NC(=O)OCc1ccccc1)C(C)C)C(=O)CF (stereo not drawn) [Z-VAD-fmk, Benzyloxycarbonyl-Val-Ala-Asp(OMe)-fluoromethylketone] (Cbz-Val-Ala-Asp(OMe)-CH2F; configuration not given here)
- Engulfment of neighboring cells by gamma-irradiated CMFDA+ cells (cell-in-cell internalization) (HCT116 cells [4]): not affected
- Exposure of PS on the outer plasma membrane of irradiated CMFDA+ cells (HCT116 cells [4]): inhibited the exposure of PS
- Cellular degradation of engulfed CMTMR+ cells (HCT116 cells [4]; inhibitors 100 μM): significantly reduced

SMILES: CO/C1=C\C(C)=C\[C@@H](C)[C@@H](O)[C@@H](C)C/C(C)=C/C=C/[C@H](OC)[C@@H]([C@@H](C)[C@@H](O)[C@H](C)[C@@]2(O)C[C@@H](O)[C@H](C)[C@@H](C(C)C)O2)OC1=O [bafilomycin A1, Bafilomycin A1]
- Frequency of dying cells (AnnexinV+DRAQ7- and DRAQ7+ cells) (HCT116 cells [4]; total, non-irradiated CMTMR+ and irradiated CMFDA+ cells, BafA1 50 nM): increased the frequency of dying cells

SMILES: CC[C@H](CO)Nc1nc(NCc2ccccc2)c2ncn(C(C)C)c2n1 [roscovitine, Roscovitine]
- Exposure of PS on the outer plasma membrane of irradiated CMFDA+ cells (HCT116 cells [4]): inhibited the exposure of PS

Source: patent US11471463B2, “Enhancers of cellular cannibalism for use to sensitize tumors to radiation therapy” (Institut Gustave-Roussy, priority 2017, dated 2022)
